Experimental data reported in patent US12123813B2, “Polymer stabilization of chromogen solutions” (Ventana Medical Systems, Inc., priority 2012, dated 2024).
Counter-ions that a name gives are not always drawn.

Experiments:
[1] = Polymer screening: DAB sulfate precipitation after KHSO4 addition (visual); type: physicochemical; details: additive in DAB chromogen solution
Protocol: One embodiment of a DAB base solution comprises DAB chromogen, one or more enhancers, and a stabilizer. […] Exemplary base solutions comprise 5.5 mM DAB, 10 mM imidazole, 10 mM 2-hydroxypyridine, and 1 mM sodium metabisulfite, with a pH of 2.5±0.1. In one embodiment, these compositions were tested using KHSO4 concentrations ranging from 0 to about 10 mM; more typically 0, 1.37, 2.75 and 8.0 mM, with DAB sulfate precipitation being induced at 4° C. overnight.
Polymers were screened for their impact on DAB sulfate precipitation formation by combining an enhanced DAB base solution containing a set amount of the polymer with select molar ratios of potassium hydrogen sulfate, KHSO4, relative to DAB. The enhanced DAB base solution used comprised 5.5 mM DAB·4HCl, 10 mM imidazole, 10 mM 2-hydroxypyridine, 1 mM sodium metabisulfite and 0.05% w/v Brij 35 at pH=2.3±0.1. The potassium hydrogen sulfate concentrations screened were 2.75 and 8.0 mM. […] Solutions were monitored for physical changes (i.e. color or precipitation).
Candidate polymers were screened for their impact on DAB sulfate precipitation formation by combining an enhanced DAB base solution containing a set amount of the polymer with select molar ratios of potassium hydrogen sulfate, KHSO4, relative to DAB. […] Solutions were monitored for physical changes (i.e. color or precipitation).

[2] = Water solubility of DAB-polymer complex in chromogen solution; type: physicochemical
Description: Sulfate and sulfonate polymers are believed to form a DAB-polymer salt complex where the hydrophilic polymer backbone helps maintain water solubility.

SMILES | inhibition of DAB sulfate precipitation (in words) [1] | formation of water soluble DAB-polymer complex (in words) [2]
CC(O)CO (centres unmarked) [1,2-propanediol] | failed to inhibit DAB sulfate precipitation | –
NCCOS(=O)(=O)O [2-aminoethylhydrogen sulfate] | – | did not form water soluble DAB complexes
